This note sets out measurements from patent publication US20130287807A1, “COMPOUNDS FOR TREATING SYMPTOMS ASSOCIATED WITH PARKINSON'S DISEASE” (priority 2008, published 2013).

In one test the test system is monoclonal antibody MV-004. The test is described as follows: In vitro binding assay (ELISA), BSA-coupled peptides, parental antibody MV-004. Also on record: species or system BalbC mice. To be noted: Table 1B; peptide-BSA on plate, compared to original epitope. Here is the method:
(§1) Peptides derived from Phage Display as well as variants thereof were coupled to BSA and bound to ELISA plates (1 μM; as indicated in the respective figures) and subsequently incubated with the monoclonal antibody that was used for the screening procedure to analyse binding capacity of identified peptides.
Legend to Table 1B: the binding capacity is coded by the following binding code: 1:X describes the dilution factor of the parental AB.
For the molecule EVWHRLQC [p4419], the “Binding Capacity” value was 3 (strong binding :>96000). As for EVWHRHQC [p4417], the “Binding Capacity” value is listed as 2 (medium binding :24-96000).

With ELWHRAFC [p4665], the “Binding Capacity” value is recorded as 2 (medium binding :24-96000).

For the molecule ELWHRYPC [p4420], the “Binding Capacity” value is given as 2 (medium binding :24-96000). The same measure, in the same setting: the value for EVWHRGC [p4788] was 1 (weak binding :<24000); that for EVWHRHC [p4789] was 1 (weak binding :<24000); that for ERWHEKHC [p4418] was 3 (strong binding :>96000). Still for that read-out and setting: to ERWHEKC [p4790] belongs 1 (weak binding :<24000); to ELWHRAC [p4786], 1 (weak binding :<24000).

A further test relates to monoclonal antibody MV-002. The test is described as follows: In vitro binding assay (ELISA), BSA-coupled peptides, parental antibody MV-002. Also on record: species or system C57/B16 mice. To be noted: Table 1 (MV-002); peptide-BSA on plate, compared to original epitope. Here is the method:
as §1
Legend to Table 1: the binding capacity is coded by the following binding code: 1:X describes the dilution factor of the parental AB. Ac- . . . indicates acetylated AA.
For orientation: ELISA stands for enzyme-linked immunosorbent assay.
As for GELWFPC [p4673], the “Binding Capacity” value is on record as 3 (strong binding :>320000).

GEIRFGSC [p4696]: the “Binding Capacity” value is 3 (strong binding :>320000). Still for that read-out and setting: the value for GEIKFDHC [p4698] was 3 (strong binding :>320000). On to SGQIWFRC [p4414], for which the “Binding Capacity” value is reported as 1 (weak binding :<40000). The same measure, in the same setting: to SGQLKFPC [p4413] belongs 1 (weak binding :<40000). SGEIHFNC [p4415]: the “Binding Capacity” value was 1 (weak binding :<40000). Consider GEIQFGAC [p4699], for which the “Binding Capacity” value was 3 (strong binding :>320000). Same read-out and setting: to THQRLWFC [p4693] belongs 3 (strong binding :>320000). The same measure, in the same setting: to SGEYVFHC [p4404] belongs 1 (weak binding :<40000).

Another test has as its system monoclonal antibody MV-004. Kind of test: In vitro inhibition assay (ELISA), MV-004 binding to original epitope. Also on record: species or system BalbC mice. The settings on record: Table 2B; OD at 10 ug peptide compared to original peptide. Here is the method:
(§2) Different amounts of peptides (concentrations ranging from 10 μg to 0.08 μg; serial dilutions; for MV-002: concentrations ranging from 5 μg to 0.03 μg; serial dilutions), derived from Phage Display were incubated with the monoclonal antibody that was used for the screening procedure. Peptides diminishing subsequent binding of the antibody to the original epitope coated on ELISA plates were considered as inhibiting in this assay.
Legend to Table 2B: the inhibition capacity is coded by the following code: Weak inhibition means more peptide is required to lower AB binding than with the original epitope; strong inhibition means similar peptide amounts are required for mimotope and original epitope for lowering AB binding. Mimotopes are compared to the original peptide as standard. OD at 10 ug peptide used in the assay is used to calculate the competition capacity compared to original peptide.
As for EVWHRLQC [p4419], the “Inhibition Capacity” value is given as 2 (strong inhibition (as original epitope; OD of 10 ug peptide below 2 times of original peptide)). Same read-out and setting: the value for EVWHRHQC [p4417] was 1 (Weaker than original epitope (OD of 10 ug peptide below 5 times of original peptide)).

In the case of ELWHRAFC [p4665], the “Inhibition Capacity” value is on record as 2 (strong inhibition (as original epitope; OD of 10 ug peptide below 2 times of original peptide)).

In the case of ELWHRYPC [p4420], the “Inhibition Capacity” value is given as 1 (Weaker than original epitope (OD of 10 ug peptide below 5 times of original peptide)).

Turning to EVWHRGC [p4788], the “Inhibition Capacity” value is on record as 1 (Weaker than original epitope (OD of 10 ug peptide below 5 times of original peptide)). The same measure, in the same setting: to EVWHRHC [p4789] belongs 1 (Weaker than original epitope (OD of 10 ug peptide below 5 times of original peptide)); to ERWHEKHC [p4418], 2 (strong inhibition (as original epitope; OD of 10 ug peptide below 2 times of original peptide)); to ERWHEKC [p4790], 2 (strong inhibition (as original epitope; OD of 10 ug peptide below 2 times of original peptide)). Same read-out and setting: to ELWHRAC [p4786] belongs 1 (Weaker than original epitope (OD of 10 ug peptide below 5 times of original peptide)).

In a further test the test system is monoclonal antibody MV-002. Kind of test: In vitro inhibition assay (ELISA), MV-002 binding to original epitope. Also noted: species or system C57/B16 mice. The settings on record: Table 2 (MV-002); OD at 5 ug peptide compared to original peptide. Here is the method: as §2
Legend to Table 2: the inhibition capacity is coded by the following code: Weak inhibition means more peptide is required to lower AB binding than with the original epitope; strong inhibition means similar peptide amounts are required for mimotope and original epitope for lowering AB binding. Mimotopes are compared to the original peptide as standard. OD at 5 ug peptide used in the assay is used to calculate the competition capacity compared to original peptide.
Take GELWFPC [p4673]: the “Inhibition Capacity” value is given as 1 (Weaker than original epitope (OD of peptide below 4, 6 times of original peptide)). As for GEIKFDHC [p4698], the “Inhibition Capacity” value is given as 2 (strong inhibition (as original epitope; OD of peptide below 2, 3 times of original peptide)). On the same count and under the same terms, the value for GEIQFGAC [p4699] was 1 (Weaker than original epitope (OD of peptide below 4, 6 times of original peptide)).

The next test concerns the target monoclonal antibody MV-001. Kind of test: ELISA on peptide-BSA; code 1 = weak binding, OD halfmax 1:<4000.
Conditions: not given
For HEPLFSHC [p4719], the OD halfmax 1:X (dilution factor of the parental antibody at half-maximal OD) (dilutionfactor(1:x)) was below 4000. Still for that read-out and setting: the value for QPNLFYHC [p4713] was below 4000.

QELKRYYC [p4724]: the OD halfmax 1:X (dilution factor of the parental antibody at half-maximal OD) (dilutionfactor(1:x)) is below 4000. On the same count and under the same terms, the value for EDWFFWHC [p4709] was below 4000. Turning to TPLMFWHC [p4733], the OD halfmax 1:X (dilution factor of the parental antibody at half-maximal OD) (dilutionfactor(1:x)) is below 4000.

The next test has as its target monoclonal antibody MV-002. The test is described as follows: ELISA on peptide-BSA; code 1 = weak binding, OD halfmax 1:<40000.
Conditions: not given
In the case of SGEYVFHC [p4404], the OD halfmax dilution factor of the parental antibody (1:X) (dilutionfactor(1:x)) was below 40000.

Turning to SGQLKFPC [p4413], the OD halfmax dilution factor of the parental antibody (1:X) (dilutionfactor(1:x)) is below 40000. As to GTIFFRDC [p4692], the OD halfmax dilution factor of the parental antibody (1:X) (dilutionfactor(1:x)) is below 40000. As to SGEIYFERC [p4805], the OD halfmax dilution factor of the parental antibody (1:X) (dilutionfactor(1:x)) is below 40000. On the same count and under the same terms, to AIPLFVMC [p4682] belongs below 40000. The same measure, in the same setting: the value for KLPLFVMC [p4691] was below 40000; that for AGEIYFERC [p4806] was below 40000; that for SGEIHFNC [p4415] was below 40000. Same read-out and setting: to CGEIYFER [p4807] belongs below 40000; to QLPLFVLC [p4700], below 40000; to SGQIWFRC [p4414], below 40000.

For GQIWFISC [p4666], the OD halfmax dilution factor of the parental antibody (1:X) (dilutionfactor(1:x)) was below 40000. In the case of SHTRLYFC [p4403], the OD halfmax dilution factor of the parental antibody (1:X) (dilutionfactor(1:x)) was below 40000.

The test system of a further test is Aβ/truncated/modified forms. Kind of test: In vivo characterisation of mimotopes: detection of Aβ/truncated/modified forms. Also noted: species or system C57/B16 mice; key: +: All peptides listed in table 4 mount specific immune reactions against full length and/or truncated and modified forms of Aβ or fragments thereof. The settings on record: Table 4, MV-002 derived mimotopes. The method, then:
Inhibiting as well as non-inhibiting peptides were coupled to KLH and injected into mice (wildtype C57/B16 mice; subcutaneous injection into the flank) together with an appropriate adjuvant (aluminium hydroxide). Animals were vaccinated 3-6 times in biweekly intervals and sera were taken biweekly as well. Titers to injected peptides, as well as to an irrelevant peptide were determined with every serum. Furthermore, titers against the recombinant human Aβ protein, and against original peptides were determined respectively. In general sera were analysed by reaction against peptides coupled to Bovine Serum Albumin (BSA) and recombinant full length proteins which were immobilised on ELISA plates. Titers were determined using anti mouse IgG specific antibodies. For detailed results see FIGS. 15, 16 and 17 respectively and FIGS. 23, 24 and 25 respectively.
(§3) Female C57/b16 mice, 5-6 mice per group, were subcutaneously immunized with 30 μg peptide coupled to KLH. Control groups were administered original epitope-KLH conjugates respectively. As adjuvant alum was used (always 1 mg per mouse). […] The in vitro ELISA assay to determine the antibody titer was performed with sera of single mice after each vaccination in a two week interval (see FIGS. 15 and 16 respectively). The wells of the ELISA plate were coated with mimotope-BSA conjugate and an irrelevant peptide-BSA conjugate (negative control). The positive control was performed by reaction of the parental antibody with the respective mimotope-BSA conjugate. The detection was performed with anti-mouse IgG. Additionally, recombinant proteins were immobilised on ELISA plates and sera reacted accordingly. FIGS. 15 to 17 show representative examples for assays used to characterise mimotopes in vivo.
as §3, with “FIGS. 25” for “FIGS. 15”, “and 26” for “and 16”, “respectively). Titers were calculated as OD max/2 in all figures shown.” for “respectively).”, “FIGS. 23, 24 and 25” for “FIGS. 15 to 17”
For the molecule GELWFPC [p4673], the “Detection of Aβ/truncated/modified forms” value was “+”. As for GEIRFGSC [p4696], the “Detection of Aβ/truncated/modified forms” value was “+”. Consider GEIKFDHC [p4698], for which the “Detection of Aβ/truncated/modified forms” value is “+”. SGQIWFRC [p4414]: the “Detection of Aβ/truncated/modified forms” value is given as “+”. Same read-out and setting: to SGQLKFPC [p4413] belongs “+”; to SGEIHFNC [p4415], “+”. For the molecule GEIQFGAC [p4699], the “Detection of Aβ/truncated/modified forms” value was “+”. As for THQRLWFC [p4693], the “Detection of Aβ/truncated/modified forms” value is reported as “+”. Same read-out and setting: to SGEYVFHC [p4404] belongs “+”.
